Reference: patent US20120270875A1, “PYRIMIDINE AMIDE COMPOUNDS” (priority 2011, published 2012)
pIC50: −log10 of the molar value.

What follows are compounds tested against sLFA-1/ICAM-1 (Homo sapiens, UniProt P05107+P20701, DEL701-769) (assay: sLFA-1/ICAM-1 ELISA). Conditions: not given.
Sequence of sLFA-1/ICAM-1 (P20701 26-1090 limits assumed, stated change not applied): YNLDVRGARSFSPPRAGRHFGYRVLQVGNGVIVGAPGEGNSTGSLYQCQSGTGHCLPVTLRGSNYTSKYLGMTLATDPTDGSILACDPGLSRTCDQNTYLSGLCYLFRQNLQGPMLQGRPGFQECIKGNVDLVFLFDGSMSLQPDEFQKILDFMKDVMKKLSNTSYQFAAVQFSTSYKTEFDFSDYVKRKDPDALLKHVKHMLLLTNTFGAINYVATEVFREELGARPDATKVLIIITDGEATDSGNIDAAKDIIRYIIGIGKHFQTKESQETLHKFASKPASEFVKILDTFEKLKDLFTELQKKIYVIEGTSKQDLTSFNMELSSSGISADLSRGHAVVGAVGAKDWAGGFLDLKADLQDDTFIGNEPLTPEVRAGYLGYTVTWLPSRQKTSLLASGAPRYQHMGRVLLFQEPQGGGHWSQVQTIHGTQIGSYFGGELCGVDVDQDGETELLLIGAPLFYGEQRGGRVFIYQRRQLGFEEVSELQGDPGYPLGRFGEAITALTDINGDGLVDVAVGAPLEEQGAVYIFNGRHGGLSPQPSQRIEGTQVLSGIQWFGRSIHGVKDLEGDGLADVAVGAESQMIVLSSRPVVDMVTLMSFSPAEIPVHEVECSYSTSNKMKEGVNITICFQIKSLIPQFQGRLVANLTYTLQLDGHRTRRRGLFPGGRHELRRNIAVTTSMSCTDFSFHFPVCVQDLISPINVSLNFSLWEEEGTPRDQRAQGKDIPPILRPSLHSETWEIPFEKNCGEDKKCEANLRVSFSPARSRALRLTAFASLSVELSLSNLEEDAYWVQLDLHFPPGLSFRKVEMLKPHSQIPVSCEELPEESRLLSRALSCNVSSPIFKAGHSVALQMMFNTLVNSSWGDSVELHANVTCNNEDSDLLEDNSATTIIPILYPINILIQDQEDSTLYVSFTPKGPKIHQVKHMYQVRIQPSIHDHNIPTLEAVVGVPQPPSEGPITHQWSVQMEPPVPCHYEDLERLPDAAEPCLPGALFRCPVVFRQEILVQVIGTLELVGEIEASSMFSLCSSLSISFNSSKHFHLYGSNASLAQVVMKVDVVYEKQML
Sequence of sLFA-1/ICAM-1 (P05107 23-700 limits assumed, stated change not applied): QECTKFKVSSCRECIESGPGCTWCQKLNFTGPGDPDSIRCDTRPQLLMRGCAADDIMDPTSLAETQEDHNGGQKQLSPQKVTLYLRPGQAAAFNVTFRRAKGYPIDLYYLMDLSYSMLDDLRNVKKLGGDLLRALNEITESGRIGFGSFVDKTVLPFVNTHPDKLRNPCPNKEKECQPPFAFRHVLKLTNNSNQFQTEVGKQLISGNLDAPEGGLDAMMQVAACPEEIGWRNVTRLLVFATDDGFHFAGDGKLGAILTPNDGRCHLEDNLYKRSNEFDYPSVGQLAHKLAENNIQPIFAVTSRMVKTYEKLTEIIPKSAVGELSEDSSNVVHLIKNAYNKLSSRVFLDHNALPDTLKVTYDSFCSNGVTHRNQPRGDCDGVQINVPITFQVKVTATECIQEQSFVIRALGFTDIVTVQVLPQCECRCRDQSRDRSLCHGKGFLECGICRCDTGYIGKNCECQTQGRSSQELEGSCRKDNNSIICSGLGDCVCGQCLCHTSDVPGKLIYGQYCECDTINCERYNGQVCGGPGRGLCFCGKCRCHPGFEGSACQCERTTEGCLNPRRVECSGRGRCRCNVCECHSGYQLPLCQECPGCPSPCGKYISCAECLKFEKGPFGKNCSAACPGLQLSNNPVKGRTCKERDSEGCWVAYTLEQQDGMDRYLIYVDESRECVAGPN
Type: binding
Experimental: sLFA-1/ICAM-1 ELISA and Mac-1/ICAM-1 ELISA
Plates were coated with either 50 μl/well of 2.0 ug/ml solution of sLFA-1 or Mac-1 receptor in divalent cation buffer (1 mM MnCl2, 0.14M NaCl, 20 mM HEPES pH 7.2) at 4° C. overnight. Two hundred fifty μl of blocking buffer (1% BSA in divalent cation buffer) was added to each well 1 hour at 37° C. Plates were washed 3 times with wash buffer (TBS/0.05% Tween-20/1 mM MnCl2). The compound to be tested was solubilized in DMSO. A series of 1:3 dilutions were performed to achieve a concentration range of 0.45 nM-3 uM. Fifty μl of binding buffer (0.5% BSA in divalent cation buffer)/1% DMSO and 50 μl of the solutions to be tested were added to the appropriate wells and incubated for 1 hour. Fifty μl of 5dICAM-Fc (27 ng/ml) was added to the appropriate wells and 50 μl binding buffer was added to non-specific binding wells and incubated for 2 hours and washed. One hundred μl of 1:4000 HRP-goat anti-huIgG was added to each well and incubated for 1 hour and washed. One hundred μl of 1:1 TMB solution was added to each well and developed for 20 min at room temperature. Color development was stopped by adding 100 μl H3PO4 to each well. Absorbance was measured at 450 nm.
Cc1nc(NCCCc2cccc(O)c2)nc(C)c1C(=O)N[C@@H](CNC(=O)Nc1ccccc1)C(=O)O [Example 107, (S)-2-({2-[3-(3-hydroxy-phenyl)-propylamino]-4,6-dimethyl-pyrimidine-5-carbonyl}-amino)-3-(3-phenyl-ureido)-propionic acid] was tested, and the pIC50 was 6.78.

Same assay, conditions: sLFA-1 coated plates, 5dICAM-Fc binding, ELISA; read-out: LFA-1/ICAM (IC50)
In the case of CCc1ccc(C(=O)NC[C@H](NC(=O)c2c(C)nc(NCCCc3cccc(O)c3)nc2C)C(=O)O)s1 [Example 105, (S)-[(5-Ethyl-thiophene-2-carbonyl)-amino]-2-({2-[3-(3-hydroxy-phenyl)-propylamino]-4,6-dimethyl-pyrimidine-5-carbonyl}-amino)-3-propionic acid], the pIC50 was 6.99.
O=C(NC[C@H](NC(=O)c1cnc(NCCCc2cccc(O)c2)nc1C(F)(F)F)C(=O)O)c1cccs1 [Example 77, (S)-2-({2-[3-(3-Hydroxy-phenyl)-propylamino]-4-trifluoromethyl-pyrimidine-5-carbonyl}-amino)-3-[(thiophene-2-carbonyl)-amino]-propionic acid] was tested, and the pIC50 was 6.42.
With Cc1nc(NCCCc2cccc(O)c2)nc(C)c1C(=O)N[C@@H](CNC(=O)C12CC3CC(CC(C3)C1)C2)C(=O)O [Example 99, (S)-3-[(Adamantane-1-carbonyl)-amino]-2-({2-[3-(3-hydroxy-phenyl)-propylamino]-4,6-dimethyl-pyrimidine-5-carbonyl}-amino)-propionic acid] the pIC50 was 6.54.
In the case of Cc1csc(C(=O)NC[C@H](NC(=O)c2c(C)nc(NCCCc3cccc(O)c3)nc2C)C(=O)O)c1 [Example 89, (S)-2-({2-[3-(3-hydroxy-phenyl)-propylamino]-4,6-dimethyl-pyrimidine-5-carbonyl}-amino)-3-[(4-methyl-thiophene-2-carbonyl)-amino]-propionic acid], the pIC50 was 7.11.
Work on CCc1nc(NCCCc2cccc(O)c2)nc(CC)c1C(=O)N[C@@H](CNC(=O)c1cccs1)C(=O)O [Example 79, (S)-2-({4,6-Diethyl-2-[3-(3-hydroxy-phenyl)-propylamino]-pyrimidine-5-carbonyl}-amino)-3-[(thiophene-2-carbonyl)-amino]-propionic acid] yielded a pIC50 of 7.05.
With Cc1nc(NCCCc2cccc(O)c2)nc(C)c1C(=O)N[C@@H](CNC(=O)CC1CCCCC1)C(=O)O [Example 44, (S)-2-({2-[3-(3-hydroxy-phenyl)-propylamino]-4,6-dimethyl-pyrimidine-5-carbonyl}-amino)-3-[1-cyclohexyl-acetylamino]-propionic acid] the pIC50 was 6.94.
With Cc1nc(NC2CCc3cc(O)ccc3C2)nc(C)c1C(=O)N[C@@H](CNC(=O)c1cccs1)C(=O)O (stereo partly drawn) [Example 17, (S) 2-(2-[6-hydroxy-1,2,3,4-tetrahydro-naphthalen-2-ylamino]-4,6-dimethyl-pyrimidine-5-carbonyl-amino)-3-[(thiophene-2-carbonyl)-amino]-propionic acid] the pIC50 was 6.51.
In the case of Cc1nc(NCCCc2cccc(O)c2)nc(C)c1C(=O)N[C@@H](CNC(=O)c1ccc(Cl)s1)C(=O)O [Example 95, (S)-3-[(5-Chloro-thiophene-2-carbonyl)-amino]-2-({2-[3-(3-hydroxy-phenyl)-propylamino]-4,6-dimethyl-pyrimidine-5-carbonyl}-amino)-propionic acid], the pIC50 was 6.58.
With Cc1nc(NCc2ccccc2-c2ccccc2O)nc(C)c1C(=O)N[C@@H](CNC(=O)c1cccs1)C(=O)O [Example 14, (S)-2-({2-[(2′-hydroxy-biphenyl-2-ylmethyl)-amino]-4,6-dimethyl-pyrimidine-5-carbonyl}-amino)-3-[(thiophene-2-carbonyl)-amino]-propionic acid] the pIC50 was 6.30.
Cc1nc(NCCCc2cccc(O)n2)nc(C)c1C(=O)N[C@@H](CNC(=O)c1cccs1)C(=O)O [Example 52, (S)-2-({2-[3-(6-Hydroxy-pyridin-2-yl)-propylamino]-4,6-dimethyl-pyrimidine-5-carbonyl}-amino)-3-[(thiophene-2-carbonyl)-amino]-propionic acid] gave a pIC50 of 5.70.
For Cc1nc(NCCCc2cccc(O)c2)nc(C)c1C(=O)N[C@@H](CNC(=O)N1CCCc2ccccc21)C(=O)O [Example 115, (S)-3-[(3,4-Dihydro-2H-quinoline-1-carbonyl)-amino]-2-({2-[3-(3-hydroxy-phenyl)-propylamino]-4,6-dimethyl-pyrimidine-5-carbonyl}-amino)-propionic acid], the pIC50 was 6.34.
For O=C(N[C@@H](CNC(=O)c1cccs1)C(=O)O)c1cnc(NCCCc2cccc(O)c2)nc1 [Example 75, (S)-2-({2-[3-(3-Hydroxy-phenyl)-propylamino]-pyrimidine-5-carbonyl}-amino)-3-[(thiophene-2-carbonyl)-amino]-propionic acid], the pIC50 was 7.19.
In the case of Cc1ccsc1C(=O)NC[C@H](NC(=O)c1c(C)nc(NCCCc2cccc(O)c2)nc1C)C(=O)O [Example 91, (S)-2-({2-[3-(3-hydroxy-phenyl)-propylamino]-4,6-dimethyl-pyrimidine-5-carbonyl}-amino)-3-[(3-methyl-thiophene-2-carbonyl)-amino]-propionic acid], the pIC50 was 7.38.
Compound Cc1nc(NC2CCc3cccc(O)c3C2)nc(C)c1C(=O)N[C@@H](CNC(=O)c1cccs1)C(=O)O (stereo partly drawn) [Example 18, (S) 2-(2-[8-hydroxy-1,2,3,4-tetrahydro-naphthalen-2-ylamino]-4,6-dimethyl-pyrimidine-5-carbonyl-amino)-3-[(thiophene-2-carbonyl)-amino]-propionic acid] has a pIC50 of 7.32.
Cc1nc(NCc2ccccc2-c2cccc(O)c2)nc(C)c1C(=O)N[C@@H](CNC(=O)c1cccs1)C(=O)O [Example 12, (S)-2-({2-[(3′-hydroxy-biphenyl-2-ylmethyl)-amino]-4,6-dimethyl-pyrimidine-5-carbonyl}-amino)-3-[(thiophene-2-carbonyl)-amino]-propionic acid] showed a pIC50 of 6.72.
In the case of Cc1nc(NCCCc2cccc(O)c2)nc(C)c1C(=O)N[C@@H](CNC(=O)c1nccc2ccccc12)C(=O)O [Example 45, (S)-2-({2-[3-(3-hydroxy-phenyl)-propylamino]-4,6-dimethyl-pyrimidine-5-carbonyl}-amino)-3-[(isoquinoline-1-carbonyl)-amino]-propionic acid], the pIC50 was 7.06.
In the case of Cc1nc(NCCCc2cccc(O)c2)nc(C)c1C(=O)N[C@@H](CNC(=O)c1sccc1Cl)C(=O)O [Example 103, (S)-3-[(3-Chloro-thiophene-2-carbonyl)-amino]-2-({2-[3-(3-hydroxy-phenyl)-propylamino]-4,6-dimethyl-pyrimidine-5-carbonyl}-amino)-propionic acid], the pIC50 was 7.18.
Cc1nc(NCCCc2cccc(O)c2)nc(C)c1C(=O)N[C@@H](CNC(=O)c1ccsc1)C(=O)O [Example 85, (S)-2-({2-[3-(3-hydroxy-phenyl)-propylamino]-4,6-dimethyl-pyrimidine-5-carbonyl}-amino)-3-[(thiophene-3-carbonyl)-amino]-propionic acid] gave a pIC50 of 7.92.
In the case of Cc1nc(NCCCc2cccc(O)c2)nc(C)c1C(=O)N[C@@H](CNC(=O)c1csc(-c2ccncc2)n1)C(=O)O (single isomer, unassigned) [Example 41], the pIC50 was 6.45.
With Cc1nc(NCCCc2cccc(O)c2)nc(C)c1C(=O)N[C@@H](CNC(=O)c1ccccn1)C(=O)O [Example 42, (S)-2-({2-[3-(3-hydroxy-phenyl)-propylamino]-4,6-dimethyl-pyrimidine-5-carbonyl}-amino)-3-[(pyridine-2-carbonyl)-amino]-propionic acid] the pIC50 was 7.07.
